In ChEMBL document CHEMBL4130476, “4-Alkyliden-azetidinones modified with plant derived polyphenols: Antibacterial and antioxidant properties” (2017) one finds MIC and Activity data, which are given here for 12 compounds.

Format in all cases: functional
Assay [1] has as its system Staphylococcus aureus. The experiment in a line: Antibacterial activity against Staphylococcus aureus ATCC 29213 assessed as inhibition of bacterial growth incubated for 18 to 24 hrs by broth microdilution method. For orientation: In broth dilution the organism is exposed to a series of concentrations in liquid medium.
Assay [2] relates to Staphylococcus aureus. Put plainly: Antibacterial activity against linezolid and methicillin-resistant Staphylococcus aureus SAU-1 assessed as inhibition of bacterial growth incubated for 18 to 24 hrs by broth microdilution method.
Assay [3] concerns Staphylococcus aureus. The experiment in a line: Antibacterial activity against methicillin-resistant Staphylococcus aureus 44674 assessed as inhibition of bacterial growth incubated for 18 to 24 hrs by broth microdilution method.
Assay [4] concerns Staphylococcus aureus. The experiment in a line: Antibacterial activity against methicillin-susceptible Staphylococcus aureus 69856 assessed as inhibition of bacterial growth incubated for 18 to 24 hrs by broth microdilution method.
In assay [5] the test system is Staphylococcus aureus. The experiment in a line: Antibacterial activity against methicillin-susceptible Staphylococcus aureus 39249 assessed as inhibition of bacterial growth incubated for 18 to 24 hrs by broth microdilution method.
In assay [6] the test system is Staphylococcus hominis. Put plainly: Antibacterial activity against linezolid and methicillin-resistant Staphylococcus hominis alpha26 assessed as inhibition of bacterial growth incubated for 18 to 24 hrs by broth microdilution method.
For assay [7], the system named is Staphylococcus epidermidis. The experiment in a line: Antibacterial activity against linezolid and methicillin-resistant Staphylococcus epidermidis G1027 assessed as inhibition of bacterial growth incubated for 18 to 24 hrs by broth microdilution method.
Assay [8] has as its system Staphylococcus epidermidis. The experiment in a line: Antibacterial activity against methicillin-susceptible Staphylococcus epidermidis 3226 assessed as inhibition of bacterial growth incubated for 18 to 24 hrs by broth microdilution method.
The subject of assay [9] is Enterococcus faecalis. Put plainly: Antibacterial activity against Enterococcus faecalis ATCC 29212 assessed as inhibition of bacterial growth incubated for 18 to 24 hrs by broth microdilution method.
Assay [10] has as its system Enterococcus faecalis. The experiment in a line: Antibacterial activity against linezolid and […] 4150 assessed as inhibition of bacterial growth incubated for 18 to 24 hrs by broth microdilution method.
For assay [11], the system named is Enterococcus faecium. The experiment in a line: Antibacterial activity against linezolid and vancomycin-resistant Enterococcus faecium VRE2 assessed as inhibition of bacterial growth incubated for 18 to 24 hrs by broth microdilution method.
Assay [12] is described as follows: Antioxidant activity assessed as DPPH scavenging activity by measuring mmol of Trolox equivalent antioxidant capacity incubated for 40 mins. A general note: Loss of DPPH colour is used to gauge radical scavenging.
A short description of assay [13]: Antioxidant activity assessed as ABTS scavenging activity by measuring mmol of Trolox equivalent antioxidant capacity incubated for 6 mins.

≈ marks a conversion by molar mass, not a printed value.

With `C[C@@H](OC(=O)/C=C/c1ccccc1O)[C@H]1C(=O)N/C1=C\C(=O)OCc1ccccc1`, the MIC is 2 µg/mL (≈ 4.91 µM) in assay [1]; 1 µg/mL (≈ 2.45 µM) in assay [2]; over 128 µg/mL in assay [3]; over 128 µg/mL in assay [4]; over 128 µg/mL in assay [5]; 2 µg/mL (≈ 4.91 µM) in assay [6]. Further, the MIC in [7], in assay [8], in assay [9], in assay [10] and in [11] was over 128 µg/mL each time. In addition, the Activity in assay [12] is 0.002 mmolequiv; in assay [13] it was 0.143 mmolequiv.
As for `COc1cc(/C=C/C(=O)O[C@H](C)[C@H]2C(=O)N/C2=C\C(=O)OCc2ccccc2)cc(OC)c1O`, the MIC in [1] is over 128 µg/mL; in [2] it was 8 µg/mL (≈ 17.1 µM); in assay [3], 8 µg/mL (≈ 17.1 µM); in [4], over 128 µg/mL; in assay [5], 8 µg/mL (≈ 17.1 µM); in assay [6] it was 4 µg/mL (≈ 8.56 µM). Further, the MIC in [7], in [8], in [9], in assay [10] and in assay [11] was over 128 µg/mL each time. The Activity in assay [12] was 0.191 mmolequiv; in assay [13], 0.232 mmolequiv.
For the compound `CN[C@H](CC(C)C)C(=O)N[C@H]1C(=O)N[C@@H](CC(N)=O)C(=O)N[C@H]2C(=O)N[C@H]3C(=O)N[C@H](C(=O)N[C@H](C(=O)O)c4cc(O)cc(O)c4-c4cc3ccc4O)[C@H](O)c3ccc(c(Cl)c3)Oc3cc2cc(c3O[C@@H]2O[C@H](CO)[C@@H](O)[C@H](O)[C@H]2O[C@H]2C[C@](C)(N)[C@H](O)[C@H](C)O2)Oc2ccc(cc2Cl)[C@H]1O` [VANCOMYCIN], the minimal inhibitory concentration (MIC) is 1 µg/mL (≈ 0.69 µM) in [6], 2 µg/mL (≈ 1.38 µM) in assay [9], 0.25 µg/mL (≈ 0.173 µM) in [10] and over 128 µg/mL in assay [11].
Regarding `C[C@@H](OC(=O)c1ccc(O)cc1)[C@H]1C(=O)N/C1=C\C(=O)OCc1ccccc1`, the minimal inhibitory concentration (MIC) was 2 µg/mL (≈ 5.24 µM) in [1]; 2 µg/mL (≈ 5.24 µM) in [2]; over 128 µg/mL in [3]; over 128 µg/mL in assay [4]; over 128 µg/mL in [5]; 16 µg/mL (≈ 42 µM) in assay [6]. The minimum inhibitory concentration (MIC) in [7], in assay [8], in [9], in assay [10] and in assay [11] was over 128 µg/mL in each case. The figures for the Activity in [12] and in [13] were 0.007 mmolequiv and 0.01 mmolequiv, respectively.
For `C[C@@H](OC(=O)c1ccc(O)c(O)c1)[C@H]1C(=O)N/C1=C\C(=O)OCc1ccccc1`, the MIC in assay [1] is 16 µg/mL (≈ 40.3 µM); in assay [2], 16 µg/mL (≈ 40.3 µM); in [3], 8 µg/mL (≈ 20.1 µM); in [4] it was 4 µg/mL (≈ 10.1 µM); in [5] it was 4 µg/mL (≈ 10.1 µM); in assay [6], over 128 µg/mL. Besides, the minimal inhibitory concentration (MIC) in assay [7] was found to be 16 µg/mL (≈ 40.3 µM); in assay [8] it was 16 µg/mL (≈ 40.3 µM); in assay [9], 128 µg/mL (≈ 322 µM); in [10] it was 128 µg/mL (≈ 322 µM); in [11], 128 µg/mL (≈ 322 µM). In addition, the Activity in assay [12] came out at 2.59 mmolequiv; in assay [13] it was 1.3 mmolequiv.
As for `C[C@@H](OC(=O)/C=C/c1ccc2c(c1)OCO2)[C@H]1C(=O)N/C1=C\C(=O)OCc1ccccc1`, the MIC is over 128 µg/mL in assay [1]; over 128 µg/mL in assay [2]; over 128 µg/mL in assay [3]; over 128 µg/mL in [4]; over 128 µg/mL in [5]; 128 µg/mL (≈ 294 µM) in assay [6]. Moreover, the MIC in [7], in [8], in assay [9], in assay [10] and in [11] was over 128 µg/mL each time.
Regarding `C[C@@H](OC(=O)c1ccc2c(c1)OCO2)[C@H]1C(=O)N/C1=C\C(=O)OCc1ccccc1`, the minimum inhibitory concentration (MIC) in assay [1] is 2 µg/mL (≈ 4.89 µM); in assay [2], 2 µg/mL (≈ 4.89 µM); in assay [3], 4 µg/mL (≈ 9.77 µM); in assay [4] it was 8 µg/mL (≈ 19.5 µM); in assay [5], 4 µg/mL (≈ 9.77 µM); in assay [6], 4 µg/mL (≈ 9.77 µM). The MIC in assay [7] was 4 µg/mL (≈ 9.77 µM); in assay [8], 8 µg/mL (≈ 19.5 µM); in assay [9], over 128 µg/mL; in assay [10] it was over 128 µg/mL; in assay [11], over 128 µg/mL. Besides, the Activity in [12] turned out to be 0.012 mmolequiv.
With `C[C@@H](OC(=O)/C=C/c1ccc(O)c(O)c1)[C@H]1C(=O)N/C1=C\C(=O)OCc1ccccc1`, the minimal inhibitory concentration (MIC) in [1], in assay [2], in assay [3], in [4], in assay [5] and in assay [6] was over 128 µg/mL throughout. Further, the MIC in [7], in assay [8], in assay [9], in assay [10] and in assay [11] was over 128 µg/mL in each case. In addition, the Activity is 1.67 mmolequiv in assay [12] and 1.03 mmolequiv in [13].
In the case of `CO/N=C(\C(=O)N[C@@H]1C(=O)N2C(C(=O)O)=C(COC(N)=O)CS[C@H]12)c1ccco1` [CEFUROXIME], the MIC in assay [1] was 2 µg/mL (≈ 4.71 µM); in assay [2], over 128 µg/mL; in [3], 8 µg/mL (≈ 18.9 µM); in [4], 1 µg/mL (≈ 2.36 µM); in [5], 2 µg/mL (≈ 4.71 µM); in assay [6], 8 µg/mL (≈ 18.9 µM). Further, the MIC is 32 µg/mL (≈ 75.4 µM) in assay [7]; 0.5 µg/mL (≈ 1.18 µM) in assay [8]; over 128 µg/mL in assay [9]; over 128 µg/mL in [10]; over 128 µg/mL in [11].
Turning to `C[C@@H](OC(=O)/C=C/c1ccc(O)cc1)[C@H]1C(=O)N/C1=C\C(=O)OCc1ccccc1`, the MIC in assay [1] is 8 µg/mL (≈ 19.6 µM); in assay [2], 4 µg/mL (≈ 9.82 µM); in assay [3], 4 µg/mL (≈ 9.82 µM); in [4] it was 8 µg/mL (≈ 19.6 µM); in [5], 4 µg/mL (≈ 9.82 µM); in assay [6] it was 4 µg/mL (≈ 9.82 µM). In addition, the minimum inhibitory concentration (MIC) is 8 µg/mL (≈ 19.6 µM) in assay [7]; 8 µg/mL (≈ 19.6 µM) in assay [8]; over 128 µg/mL in assay [9]; 64 µg/mL (≈ 157 µM) in assay [10]; over 128 µg/mL in assay [11]. Further, the Activity amounted to 0.003 mmolequiv in [12] and 0.053 mmolequiv in [13].
Turning to `COc1cc(/C=C/C(=O)O[C@H](C)[C@H]2C(=O)N/C2=C\C(=O)OCc2ccccc2)ccc1O`, the minimum inhibitory concentration (MIC) in assay [1] amounted to 4 µg/mL (≈ 9.14 µM); in [2] it was 4 µg/mL (≈ 9.14 µM); in [3] it was 4 µg/mL (≈ 9.14 µM); in [4], 8 µg/mL (≈ 18.3 µM); in assay [5], 8 µg/mL (≈ 18.3 µM); in assay [6] it was 4 µg/mL (≈ 9.14 µM). Besides, the MIC in assay [7] is 4 µg/mL (≈ 9.14 µM); in [8], 8 µg/mL (≈ 18.3 µM); in assay [9], over 128 µg/mL; in assay [10], 8 µg/mL (≈ 18.3 µM); in assay [11], over 128 µg/mL. The Activity in assay [12] was 0.142 mmolequiv; in assay [13] it was 0.284 mmolequiv.
As to `C[C@@H](OC(=O)c1cccc2c1OCO2)[C@H]1C(=O)N/C1=C\C(=O)OCc1ccccc1`, the MIC in assay [1] is 16 µg/mL (≈ 39.1 µM); in assay [2] it was 2 µg/mL (≈ 4.89 µM); in [3], over 128 µg/mL; in assay [4], over 128 µg/mL; in assay [5], over 128 µg/mL; in [6] it was 8 µg/mL (≈ 19.5 µM). Moreover, the MIC in [7], in [8], in assay [9], in assay [10] and in assay [11] was over 128 µg/mL in each case.

For orientation: MIC means the lowest concentration found to suppress growth.
